According to ChEMBL document CHEMBL3885881, “DrugMatrix”:

Organism: Rattus norvegicus
Assay: DrugMatrix - Regimen: Daily Repeat
Assay type: toxicity, organism-based, Sprague-Dawley
Parameters: regimen Daily Repeat, gender Male, age 6-8 weeks
Conditions: in vivo, po, route oral GAVAGE, vehicle 100 % WATER; for ABSOLUTE BASOPHIL / ABSOLUTE EOSINOPHIL / ABSOLUTE LYMPHOCYTE / ABSOLUTE MONOCYTE / ABSOLUTE SEGMENTED NEUTROPHIL / BASOPHIL / EOSINOPHIL / ERYTHROCYTE COUNT / HEMATOCRIT / HEMOGLOBIN / LEUKOCYTE COUNT / LYMPHOCYTE / MEAN CORPUSCULAR HEMOGLOBIN / MEAN CORPUSCULAR HEMOGLOBIN CONCENTRATION / MEAN CORPUSCULAR VOLUME / MONOCYTE / NEUTROPHIL / NUCLEATED RED BLOOD CELLS / PLATELET COUNT: tissue Blood; for ALANINE AMINOTRANSFERASE / ALBUMIN / ALKALINE PHOSPHATASE / ASPARTATE AMINOTRANSFERASE / BLOOD UREA NITROGEN / CARBON DIOXIDE / CHLORIDE / CHOLESTEROL / CREATINE PHOSPHOKINASE / CREATININE / GLUCOSE / LACTATE DEHYDROGENASE / LIPASE / PHOSPHORUS / POTASSIUM / SODIUM / TOTAL BILIRUBIN / TOTAL PROTEIN / URIC ACID: tissue Plasma
[1] = 200 mg/kg, 120 h, dose level Low, time 5 day
[2] = 2625 mg/kg, 72 h, dose level High, time 3 day
[3] = 2625 mg/kg, 120 h, dose level High, time 5 day

SMILES: O=C(O)c1cccnc1 [NIACIN]
- ABSOLUTE BASOPHIL [1]: 0 CELLS/uL
- ABSOLUTE EOSINOPHIL [1]: 0 CELLS/uL
- ABSOLUTE LYMPHOCYTE [1]: 13805.67 CELLS/uL
- ABSOLUTE MONOCYTE [1]: 0 CELLS/uL
- ABSOLUTE SEGMENTED NEUTROPHIL [1]: 1394.33 CELLS/uL
- BASOPHIL [1]: 0%
- EOSINOPHIL [1]: 0%
- ERYTHROCYTE COUNT [1]: 5.57 x10E6/uL
- HEMATOCRIT [1]: 34.77%
- HEMOGLOBIN [1]: 13.77 G/DL
- LEUKOCYTE COUNT [1]: 15.2 x10E3/uL
- LYMPHOCYTE [1]: 91%
- MEAN CORPUSCULAR HEMOGLOBIN [1]: 24.73 pg
- MEAN CORPUSCULAR HEMOGLOBIN CONCENTRATION [1]: 39.57 G/DL
- MEAN CORPUSCULAR VOLUME [1]: 62.53 fL
- MONOCYTE [1]: 0%
- NEUTROPHIL [1]: 9%
- NUCLEATED RED BLOOD CELLS [1]: 0.33 /100WBC
- PLATELET COUNT [1]: 1180.67 x10E3/uL
- ALANINE AMINOTRANSFERASE [1]: 55.33 u/L
- ALBUMIN [1]: 4.03 G/DL
- ALKALINE PHOSPHATASE [1]: 296.33 u/L
- ASPARTATE AMINOTRANSFERASE [1]: 77.67 u/L
- BLOOD UREA NITROGEN [1]: 12.67 mg/dL
- CARBON DIOXIDE [1]: 31.33 mmol/L
- CHLORIDE [1]: 101.67 MEQ/L
- CHOLESTEROL [1]: 76.33 mg/dL
- CREATINE PHOSPHOKINASE [1]: 209 u/L
- CREATININE [1]: 0.23 mg/dL
- GLUCOSE [1]: 140 mg/dL
- LACTATE DEHYDROGENASE [1]: 212 u/L
- LIPASE [1]: 13 u/L
- PHOSPHORUS [1]: 12.63 mg/dL
- POTASSIUM [1]: 6.55 MEQ/L
- SODIUM [1]: 145.13 MEQ/L
- TOTAL BILIRUBIN [1]: 0.13 mg/dL
- TOTAL PROTEIN [1]: 5.93 G/DL
- URIC ACID [1]: 1.43 mg/dL
- ABSOLUTE BASOPHIL [2]: 0 CELLS/uL
- ABSOLUTE EOSINOPHIL [2]: 135 CELLS/uL
- ABSOLUTE LYMPHOCYTE [2]: 10224 CELLS/uL
- ABSOLUTE MONOCYTE [2]: 258 CELLS/uL
- ABSOLUTE SEGMENTED NEUTROPHIL [2]: 1683 CELLS/uL
- BASOPHIL [2]: 0%
- EOSINOPHIL [2]: 1%
- ERYTHROCYTE COUNT [2]: 5.89 x10E6/uL
- HEMATOCRIT [2]: 36.17%
- HEMOGLOBIN [2]: 14.27 G/DL
- LEUKOCYTE COUNT [2]: 12.3 x10E3/uL
- LYMPHOCYTE [2]: 84%
- MEAN CORPUSCULAR HEMOGLOBIN [2]: 24.23 pg
- MEAN CORPUSCULAR HEMOGLOBIN CONCENTRATION [2]: 39.43 G/DL
- MEAN CORPUSCULAR VOLUME [2]: 61.33 fL
- MONOCYTE [2]: 2%
- NEUTROPHIL [2]: 13%
- NUCLEATED RED BLOOD CELLS [2]: 0.33 /100WBC
- PLATELET COUNT [2]: 1326 x10E3/uL
- ALANINE AMINOTRANSFERASE [2]: 45 u/L
- ALBUMIN [2]: 3.73 G/DL
- ALKALINE PHOSPHATASE [2]: 269.33 u/L
- ASPARTATE AMINOTRANSFERASE [2]: 105 u/L
- BLOOD UREA NITROGEN [2]: 15 mg/dL
- CARBON DIOXIDE [2]: 29 mmol/L
- CHLORIDE [2]: 100.33 MEQ/L
- CHOLESTEROL [2]: 68.67 mg/dL
- CREATINE PHOSPHOKINASE [2]: 532.33 u/L
- CREATININE [2]: 0.18 mg/dL
- GLUCOSE [2]: 145.67 mg/dL
- LACTATE DEHYDROGENASE [2]: 900 u/L
- LIPASE [2]: 11.33 u/L
- PHOSPHORUS [2]: 12.33 mg/dL
- POTASSIUM [2]: 6.2 MEQ/L
- SODIUM [2]: 144.73 MEQ/L
- TOTAL BILIRUBIN [2]: 0.13 mg/dL
- TOTAL PROTEIN [2]: 5.57 G/DL
- URIC ACID [2]: 1.47 mg/dL
- ABSOLUTE BASOPHIL [3]: 0 CELLS/uL
- ABSOLUTE EOSINOPHIL [3]: 0 CELLS/uL
- ABSOLUTE LYMPHOCYTE [3]: 15227.67 CELLS/uL
- ABSOLUTE MONOCYTE [3]: 166 CELLS/uL
- ABSOLUTE SEGMENTED NEUTROPHIL [3]: 1206.33 CELLS/uL
- BASOPHIL [3]: 0%
- EOSINOPHIL [3]: 0%
- ERYTHROCYTE COUNT [3]: 5.68 x10E6/uL
- HEMATOCRIT [3]: 36.37%
- HEMOGLOBIN [3]: 14.23 G/DL
- LEUKOCYTE COUNT [3]: 16.6 x10E3/uL
- LYMPHOCYTE [3]: 91.67%
- MEAN CORPUSCULAR HEMOGLOBIN [3]: 25.07 pg
- MEAN CORPUSCULAR HEMOGLOBIN CONCENTRATION [3]: 39.17 G/DL
- MEAN CORPUSCULAR VOLUME [3]: 64 fL
- MONOCYTE [3]: 1%
- NEUTROPHIL [3]: 7.33%
- NUCLEATED RED BLOOD CELLS [3]: 0.33 /100WBC
- PLATELET COUNT [3]: 1260.67 x10E3/uL
- ALANINE AMINOTRANSFERASE [3]: 55 u/L
- ALBUMIN [3]: 4.07 G/DL
- ALKALINE PHOSPHATASE [3]: 397.33 u/L
- ASPARTATE AMINOTRANSFERASE [3]: 96 u/L
- BLOOD UREA NITROGEN [3]: 16.67 mg/dL
- CARBON DIOXIDE [3]: 32.33 mmol/L
- CHLORIDE [3]: 100.67 MEQ/L
- CHOLESTEROL [3]: 55.33 mg/dL
- CREATINE PHOSPHOKINASE [3]: 323.67 u/L
- CREATININE [3]: 0.2 mg/dL
- GLUCOSE [3]: 151 mg/dL
- LACTATE DEHYDROGENASE [3]: 666 u/L
- LIPASE [3]: 10.33 u/L
- PHOSPHORUS [3]: 11.7 mg/dL
- POTASSIUM [3]: 6.01 MEQ/L
- SODIUM [3]: 145.9 MEQ/L
- TOTAL BILIRUBIN [3]: 0.27 mg/dL
- TOTAL PROTEIN [3]: 5.7 G/DL
- URIC ACID [3]: 1.43 mg/dL
